Measured values reported in patent US20200199247A1, “ANTIBODY CONJUGATES OF IMMUNE-MODULATORY COMPOUNDS AND USES THEREOF” (SILVERBACK THERAPEUTICS, INC., priority 2017, published 2020).
Peptide text beside a SMILES is read from it. * marks the point of attachment. Cbz = O=C(OCc1ccccc1)*

Experiments:
TGFβR1 [1] = target: T1, TGFβR1 (Homo sapiens, UniProt P36897); test: Cellular level of TGFβR1 in normal human lung fibroblasts with or without proteasome inhibitor (western blot); assay type: cell-based; design: endogenous in cells; host or cells: normal human lung fibroblasts
T1 sequence (P36897 34-503): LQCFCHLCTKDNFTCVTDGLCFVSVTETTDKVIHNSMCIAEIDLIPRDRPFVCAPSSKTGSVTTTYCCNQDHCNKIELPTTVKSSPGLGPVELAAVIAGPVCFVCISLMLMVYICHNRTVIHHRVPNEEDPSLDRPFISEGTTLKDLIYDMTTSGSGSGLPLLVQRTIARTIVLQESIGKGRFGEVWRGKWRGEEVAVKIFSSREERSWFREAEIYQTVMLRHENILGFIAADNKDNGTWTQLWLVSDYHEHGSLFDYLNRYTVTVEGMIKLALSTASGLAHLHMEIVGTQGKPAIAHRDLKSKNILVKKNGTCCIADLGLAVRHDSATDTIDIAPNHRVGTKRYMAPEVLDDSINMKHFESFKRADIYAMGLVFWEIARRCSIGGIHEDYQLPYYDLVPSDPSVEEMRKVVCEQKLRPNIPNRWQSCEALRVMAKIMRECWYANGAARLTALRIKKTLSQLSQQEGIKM
Method: Cells are plated, allowed to adhere, and treated with vehicle, an inhibitor, a PROTAC or a conjugate in the presence or absence of proteasome inhibitor, such as MG-132. After treatment, media is aspirated and cells are rinsed with ice cold PBS. Ice cold lysis buffer (20 mM TrisHCl pH 7.5, 150 mM NaCl, 1% Triton X-100, 2 mM EDTA and 10% glycerol) containing phosphatase and protease inhibitors is added to wells and cells are removed from the plate using a cell scraper. Lysates are transferred to a 1.5 ml tube and rocked for one hour at 4° C. with vortexing every ˜15 minutes. Tubes are spun at 8500×g for 10 minutes and supernatants are drawn into an insulin needle twice. Cell lysates are frozen at […]. Protein concentration is determined using a BCA assay and equal amounts of samples are boiled with reducing loading buffer. The samples are then subjected to electrophoresis on 4-20% polyacrylamide gels which are then transferred to PVDF membranes. […] Loading controls are detected with 1:15000 diluted primary antibody incubation at room temperature for 1 hour with rocking (Tubulin—Abcam, ab7291; Actin—Abcam, ab8224). […]
Normal human lung fibroblasts were treated with or without proteasome inhibitor MG-132 followed by the addition of DMSO or T-20. Whole cell lysates were prepared and then quantitated with a BCA assay. […] TGFβR1, TGFβR2, and actin were detected using commercially available reagents. […]

TGFβR1 [2] = target: T1, TGFβR1; test: TGFβR1 level in HER2-transfected HEK293 cells (western blot); assay type: cell-based; design: Plasmid expressing HER2 was transfected into HEK293 cells; endogenous in cells; host or cells: HEK293 cells transiently transfected with a HER2 plasmid; details: 2, 24 and 48 hours of treatment
Method: After treatment, media is aspirated and cells are rinsed with ice cold PBS. Ice cold lysis buffer (20 mM TrisHCl pH 7.5, 150 mM NaCl, 1% Triton X-100, 2 mM EDTA and 10% glycerol) containing phosphatase and protease inhibitors is added to wells and cells are removed from the plate using a cell scraper. Lysates are transferred to a 1.5 ml tube and rocked for one hour at 4° C. with vortexing every ˜15 minutes. Tubes are spun at 8500×g for 10 minutes and supernatants are drawn into an insulin needle twice. Cell lysates are frozen at ˜80° C. Protein concentration is determined using a BCA assay and equal amounts of samples are boiled with reducing loading buffer. […] Loading controls are detected with 1:15000 diluted primary antibody incubation at room temperature for 1 hour with rocking (Tubulin—Abcam, ab7291; Actin—Abcam, ab8224). […]
Plasmid expressing HER2 was transfected into HEK293 cells using commercially available materials and conditions. […] Whole cell lysates were prepared from cells after 2, 24, or 48 hours incubation and quantitated with a BCA assay. Equal amounts of lysates were run on protein gels, transferred to PVDF, and TGFβR2 was detected using commercially available reagents. To quantitate the amount of protein degradation, the signals on the Western blot were adjusted to actin loading control and data is presented as a percent of matched control.

SMILES	effect of proteasome inhibitor on T-20 induced degradation of TGFβR1 (TGFβR1 [1]; MG132 10 and 50 μM followed by 5 μM T-20)	amount of TGFβR1 protein (TGFβR1 [2])	degradation of TGFβR1 (TGFβR1 [1]; 5 μM T-20)
CC(C)C[C@@H](C=O)NC(=O)[C@H](CC(C)C)NC(=O)[C@H](CC(C)C)NC(=O)OCc1ccccc1 [MG-132, reference compound] (Cbz-Leu-Leu-Leu-aldehyde)	protected	–	–
Nc1ncc(-c2ccc(CCNC(=O)[C@@H](N)CCCCNC(=O)COc3cccc4c3C(=O)N(C3CCC(=O)NC3=O)C4=O)cc2)nc1C(=O)Nc1cnccc1N1CCOCC1 (stereo partly drawn) [Compound T-20, 3-amino-6-(4-(2-((2S)-2-amino-6-(2-((2-(2,6-dioxopiperidin-3-yl)-1,3-dioxoisoindolin-4-yl)oxy)acetamido)hexanamido)ethyl)phenyl)-N-(4-morpholinopyridin-3-yl)pyrazine-2-carboxamide]	–	remained fairly constant	degradation induced by T-20
